In patent publication US7964623B2, “Tricyclic benzopyrane compound” (Nissan Chemical Industries Ltd., priority 2004, dated 2011):

Tests used:
atrium = assay: Effects on the atrial effective refractory period (S1-S2 extrastimulus technique during bilateral vagal nerve stimulation) in anesthetized beagles; format: in vivo; conditions: intravenous, from 5 minutes after administration, basic cycle length 300 msec
Protocol: Effects on the Effective Refractory Period
Beagles were anesthetized with pentobarbital sodium and thoracotomy was done along the median line under a respirator and the incision was made on the pericardium to expose the heart. An electrocardiogram (ECG) was recorded using bipolar electrodes attached to the surface of the right atrial free wall, right atrial auricle, and right ventricular free wall. The vagal nerves were stimulated using an electrostimulation device with Nichrome wires inserted into the vagal nerves in the neck bilaterally. The conditions for electrostimulation to the vagal nerves were set such that the RR intervals on ECG were prolonged by about 100 msec compared with those before the stimulation was started.
Atrial and ventricular effective refractory periods were determined by S1-S2 extrastimulus technique at basic cycle length of 300 msec during bilateral vagal nerve stimulation, using programmable electric stimulator. A train of 10 basic stimuli (S1) was followed by a premature extrastimulus (S2) at 2 times diastolic threshold.
For evaluation of drug effects, the atrial and ventricular effective refractory periods were determined before drug administration, then respective compound was administrated intravenously at the dose of 0.3 mg/kg or 0.6 mg/kg, and the atrial and ventricular effective refractory periods were determined from 5 minutes after the administration.
The results were shown as the prolongation time on the atrial and ventricular effective refractory periods, i.e. [effective refractory period after drug administration]−[effective refractory period before drug administration] (msec).

| SMILES | Atrial Refractory Period (prolongation time on the atrial effective refractory period) (atrium; 0.3 mg/kg) | other results |
| --- | --- | --- |
| Cc1cnc2cc3c(cc2c1C)OC(C)(C)C(O)C3NCCc1ccccc1.O=C(O)/C=C\C(=O)O (racemic) [Synthesis Example 3, (±)-trans-2,2,8,9-Tetramethyl-4-[(2-phenylethyl)amino]-3,4-dihydro-2H-pyrano[2,3-g]quinolin-3-ol 1 maleate] | – | melting point: 199 to 203 °C |
| Cc1ccc2cc3c(cc2n1)C(NCCc1ccccc1)C(O)C(C)(C)O3.O=C(O)/C=C\C(=O)O (racemic) [Synthesis Example 4, (±)-trans-2,2,7-Trimethyl-4-[(2-phenylethyl)amino]-3,4-dihydro-2H-pyrano[2,3-g]quinolin-3-ol 3/2 maleate] | – | Atrial Refractory Period (prolongation time on the atrial effective refractory period) (atrium; 0.6 mg/kg): 30 ms |
| CC1(C)Oc2ccc3nc(Cl)ccc3c2[C@@H](NCCc2ccccc2)[C@@H]1O (racemic) [Synthesis Example 9, (±)-trans-8-Chloro-3,3-dimethyl-1-[(2-phenylethyl)amino]-2,3-dihydro-1H-pyrano[3,2-f]quinolin-2-ol] | – | melting point: 141 to 143 °C |
| CC1(C)Oc2ccc3nc(C#N)ccc3c2[C@@H](NCCc2ccccc2)[C@@H]1O (racemic) [Synthesis Example 10, (±)-trans-2-Hydroxy-3,3-dimethyl-1-[(2-phenylethyl)amino]-2,3-dihydro-1H-pyrano[3,2-f]quinoline-8-carbonitrile] | – | melting point: 93 to 96 °C |
| CC1(C)Oc2ccc3nc(C(N)=O)ccc3c2[C@@H](NCCc2ccccc2)[C@@H]1O (racemic) [Synthesis Example 11, (±)-trans-2-Hydroxy-3,3-dimethyl-1-[(2-phenylethyl)amino]-2,3-dihydro-1H-pyrano[3,2-f]quinoline-8-carboxamide] | – | melting point: 197 to 199 °C |
| Cc1cc(Cl)nc2cc3c(cc12)OC(C)(C)[C@H](O)[C@H]3NCCC1CCOCC1.Cl (relative stereo) | – | melting point: 318 to 320 °C (dec.) |
| CCCCCN[C@H]1c2cc3c(cc2OC(C)(C)[C@@H]1O)c(C)cc(Cl)[n+]3[O-].Cl (relative stereo) | – | melting point: 226 to 230 °C (dec.) |
| Cc1cc(C#N)nc2cc3c(cc12)OC(C)(C)[C@H](O)[C@H]3NCCc1ccccc1.O=C(O)/C=C\C(=O)O (relative stereo) [Synthesis Example 14, (3R*,4S*)-3-hydroxy-2,2,9-trimethyl-4-[(2-phenylethyl)amino]-3,4-dihydro-2H-pyrano[2,3-g]quinoline-7-carbonitrile 1 maleate] | 27 ms | – |
| Cc1cc(CO)nc2cc3c(cc12)OC(C)(C)[C@H](O)[C@H]3NCCc1ccccc1.O=C(O)/C=C\C(=O)O (relative stereo) [Synthesis Example 18, (3R*,4S*)-7-hydroxymethyl-2,2,9-trimethyl-4-[(2-phenylethyl)amino]-3,4-dihydro-2H-pyrano[2,3-g]quinolin-3-ol 1 maleate] | 27 ms | – |
| Cc1cc(Cl)nc2cc3c(cc12)OC(C)(C)[C@H](O)[C@H]3NCCc1ccccc1.O=C(O)/C=C\C(=O)O (relative stereo) [Synthesis Example 19, (3R*,4S*)-7-chloro-2,2,9-trimethyl-4-[(2-phenylethyl)amino]-3,4-dihydro-2H-pyrano[2,3-g]quinolin-3-ol 1 maleate] | 26 ms | – |
| Cc1cc(Cl)nc2cc3c(cc12)OC(C)(C)[C@H](O)[C@H]3NCCc1ccc(F)cc1 (relative stereo) [Synthesis Example 23, (3R*,4S*)-7-chloro-4-{[2-(4-fluorophenyl)ethyl]amino}-2,2,9-trimethyl-3,4-dihydro-2H-pyrano[2,3-g]quinolin-3-ol] | 22 ms | – |
| Cc1cc(Cl)nc2cc3c(cc12)OC(C)(C)[C@H](O)[C@H]3NCCc1ccccc1F (relative stereo) [Synthesis Example 24, (3R*,4S*)-7-chloro-4-{[2-(2-fluorophenyl)ethyl]amino}-2,2,9-trimethyl-3,4-dihydro-2H-pyrano[2,3-g]quinolin-3-ol] | 23 ms | – |
| Cc1cc(Cl)nc2cc3c(cc12)OC(C)(C)[C@H](O)[C@H]3NCCc1ccc(Cl)cc1 (relative stereo) [Synthesis Example 25, (3R*,4S*)-7-chloro-4-{[2-(4-chlorophenyl)ethyl]amino}-2,2,9-trimethyl-3,4-dihydro-2H-pyrano[2,3-g]quinolin-3-ol] | 27 ms | – |
| Cc1cc(Cl)nc2cc3c(cc12)OC(C)(C)[C@H](O)[C@H]3NCCc1ccc(N)cc1 (relative stereo) [Synthesis Example 26, (3R*,4S*)-4-{([2-(4-aminophenyl)ethyl]amino}-7-chloro-2,2,9-trimethyl-3,4-dihydro-2H-pyrano[2,3-g]quinolin-3-ol] | 24 ms | – |
| Cc1cc(Cl)nc2cc3c(cc12)OC(C)(C)[C@H](O)[C@H]3NCC(O)c1ccccc1 (relative stereo) [Synthesis Example 27, (3R*,4S*)-7-chloro-4-[(2-hydroxy-2-phenylethyl)amino]-2,2,9-trimethyl-3,4-dihydro-2H-pyrano[2,3-g]quinolin-3-ol] | 32 ms | – |
| Cc1cc(Cl)nc2cc3c(cc12)OC(C)(C)[C@H](O)[C@H]3NCCc1cccnc1 (relative stereo) [Synthesis Example 41, (3R*,4S*)-7-chloro-2,2,9-trimethyl-4-{[2-(3-pyridyl)ethyl]amino}-3,4-dihydro-2H-pyrano[2,3-g]quinolin-3-ol] | 31 ms | – |
| Cc1cc(Cl)nc2cc3c(cc12)OC(C)(C)[C@H](O)[C@H]3NCCC1CCCC1 (relative stereo) [Synthesis Example 47, (3R*,4S*)-7-chloro-4-[2-(cyclopentylethyl)amino]-2,2,9-trimethyl-3,4-dihydro-2H-pyrano[2,3-g]quinolin-3-ol] | 24 ms | – |
| Cc1cc(Cl)nc2cc3c(cc12)OC(C)(C)[C@H](O)[C@H]3NCCC1=CCCC1 (relative stereo) [Synthesis Example 48, (3R*,4S*)-7-chloro-4-[2-(1-cyclopentenylethyl)amino]-2,2,9-trimethyl-3,4-dihydro-2H-pyrano[2,3-g]quinolin-3-ol] | 23 ms | – |
| CCCCCN[C@H]1c2cc3nc(Cl)cc(C)c3cc2OC(C)(C)[C@@H]1O.Cl (relative stereo) [Synthesis Example 52, (3R*,4S*)-7-chloro-2,2,9-trimethyl-4-(pentylamino)-3,4-dihydro-2H-pyrano[2,3-g]quinolin-3-ol hydrochloride] | 28 ms | – |
| CCCC(O)CN[C@H]1c2cc3nc(Cl)cc(C)c3cc2OC(C)(C)[C@@H]1O (relative stereo) [Synthesis Example 58, (3R*,4S*)-7-chloro-4-[(2-hydroxypentyl)amino]-2,2,9-trimethyl-3,4-dihydro-2H-pyrano[2,3-g]quinolin-3-ol] | 28 ms | – |
| CC1(C)Oc2cc3nccnc3cc2[C@H](NCCc2ccccc2)[C@H]1O.O=C(O)/C=C\C(=O)O (relative stereo) [Synthesis Example 59, (3R*,4S*)-7,7-dimethyl-9-[(2-phenylethyl)amino]-8,9-dihydro-7H-pyrano[2,3-g]quinoxalin-8-ol 1 maleate] | 22 ms | – |
| CC1(C)Oc2cc3nccnc3cc2[C@H](NCCc2ccccc2F)[C@H]1O.Cl (relative stereo) [Synthesis Example 60, (3R*,4S*)-4-{[2-(2-fluorophenyl)ethyl]amino}-2,2-dimethyl-3,4-dihydro-2H-pyrano[2,3-g]quinoxalin-3-ol hydrochloride] | 22 ms | – |
| CC1(C)Oc2cc3nccnc3cc2[C@H](NCCc2ccc(F)cc2)[C@H]1O.Cl (relative stereo) [Synthesis Example 61, (3R*,4S*)-9-{[2-(4-fluorophenyl)ethyl]amino}-7,7-dimethyl-8,9-dihydro-7H-pyrano[2,3-g]quinoxalin-8-ol hydrochloride] | 20 ms | – |
| CC1(C)Oc2cc3c(cc2[C@H](NCCc2ccccc2)[C@H]1O)OCC(=O)N3 (relative stereo) [Synthesis Example 71, (7R*,8S*)-7-hydroxy-6,6-dimethyl-8-(2-phenylethyl)amino]-4,6,7,8-tetrahydro-1,5-dioxa-4-aza-anthracene-3-one] | 31 ms | – |
| CN1C(=O)COc2cc3c(cc21)OC(C)(C)[C@H](O)[C@H]3NCCc1ccccc1.Cl (relative stereo) [Synthesis Example 73, (7R*,8S*)-7-hydroxy-4,6,6-trimethyl-8-(2-phanylethylamino)-4,6,7,8-tetrahydro-1,5-dioxa-4-aza-anthracene-3-one hydrochloride] | 31 ms | – |
| CC1(C)Oc2cc3c(cc2C(NCCc2ccccc2)C1O)NC(=O)CO3 (centres unmarked) [Synthesis Example 74, 7-Hydroxy-6,6-dimethyl-8-(2-phenylethylamino)-7,8-dihydro-1H,6H-4,5-dioxa-1-aza-anthracene-2-one] | – | Atrial Refractory Period (prolongation time on the atrial effective refractory period) (atrium; 0.6 mg/kg): 25 ms |
